Results published in patent publication US20260153494A1 (AGRICUL TURAL UNIVERSITY OF ATHENS, priority 2023, published 2026).
Positions count from the first letter of the chain named.

What was measured:
[1] = tested on: FGGsh101 (phi class glutathione S-transferase GSTF mutant sh101, derived by DNA shuffling, with N-terminal FGG tag, SEQ ID NO: 1); type: biochemical
Experimental: (§1) GST activity assays were carried by using the 1-chloro-2,4-dinitrobenzene (CDNB)/glutathione (GSH) substrate system as described previously (Axarli et al., 2017; Georgakis et al., 2020). Determination of enzyme activity was conducted using 1 mM CDNB and 2.5 mM GSH final concentration in 0.1 M KH2PO4, PH 6.5 and 37° C. Kinetic analysis of the potential supramolecular protein complexes was performed as previously described (Axarli et al., 2016, Georgakis et al., 2020) five days after addition of CB[8] to the enzyme solution in 1:1 stoichiometry. Protein precipitates were removed by centrifugation at 10,000 rpm for 10 min prior to the analysis. The steady state data were processed using GraphPad Prism version 7 (GraphPad Prism Software, Inc.). Turnover numbers were evaluated for one active site per subunit of enzyme. Specific activity (SA) was estimated in micromoles per minute per milligram of protein (μmol min-1 mg-1). Determination of protein concentration was carried using the Bradford assay with bovine serum albumin as standard (Bradford, 1976).
(§2) The kinetic parameters of FGGsh101 and FGGsh155 were analyzed both in absence of CB[8] and five days after the addition of the macrocyclic host in 1:1 ratio. […] (see Example 3)

[2] = tested on: FGGsh101:CB[8] (FGG-tagged phi class glutathione S-transferase GSTF mutant sh101, SEQ ID NO: 1, with cucurbit[8]uril 1:1); type: biochemical
Experimental: as §1, §2

[3] = tested on: FGGsh155:CB[8] hexamer (FGG-tagged phi class glutathione S-transferase GSTF mutant sh155, SEQ ID NO: 2, with cucurbit[8]uril 1:1); type: biochemical
Experimental: as §1, §2

[4] = tested on: FGGsh155 (phi class glutathione S-transferase GSTF mutant sh155, derived by DNA shuffling, with N-terminal FGG tag, SEQ ID NO: 2); type: biochemical
Experimental: as §1, §2

[5] = tested on: Immobilized FGGsh155:CB[8] hexamer (GSTF mutant sh155, FGG-tagged, SEQ ID NO: 2, with cucurbit[8]uril 1:1, on glutaraldehyde-crosslinked chitosan); type: biochemical
Experimental: Initially, 2%, 3% and 4% (w/v) medium molecular weight chitosan (molecular weight of 190 to 310 kDa) was dissolved by continuous stirring in 2% (v/v) acetic acid. The formed chitosan gels were stored at 4° C. until the following day (12 to 24 hours) in order to remove any trapped air. For the immobilisation, 180 mg of chitosan gel were deposited by a syringe at the bottom of a cuvette with 4 mL capacity. Then 50 μL of different concentrations of GA solution [0.4%, 0.5%, 0.6%, 0.7%, and 1% (v/v)] were added and the mixture was lightly stirred with a pipette tip. The carrier mixture was left for an hour so that the reaction of GA binding to the amino groups of the carrier was accomplished. GA was diluted in 20 mM KH2PO4, PH 7.0. Afterwards, the carrier was washed thrice with 2 mL 20 mM KH2PO4, PH 7, in order to remove any unbound GA molecules. The immobilization of FGGsh155:CB[8] was performed five days after the addition of the CB[8] macrocyclic agent at stoichiometry of 1:1, for uniformity of the experiments. Thus, 600 μL of the enzyme solution with 0.7-0.8 mg/mL concentration were added to the activated chitosan medium. The enzyme was incubated with the carrier at 25° C. overnight with stirring at 50-80 rpm. The following day, the volume of the enzyme solution that wasn't absorbed by the carrier was removed and the carrier was incubated with 600 μL of 2 mg/mL NaBH4 solution for 30 min. This step was conducted in order to stabilize the Schiff's bases that form due to the reaction of GA with the enzyme amino groups (Barbosa et al., 2014). Finally, three washes were performed with 20 mM KH2PO4, PH 7, for the removal of any unbound enzyme. Protein binding efficiency to the carrier (%) and retention of enzyme activity (%) were defined as: […]
Determination of the enzyme activity for the immobilised enzyme complex FGGsh155:CB[8] was performed using the CDNB/GSH substrate system with 20 mM KH2PO4, PH 7, as a reaction solution at 37° C., as has been previously described (Georgakis et al., 2020a; Axarli et al., 2017; Cho et al., 2005). The rate assay was recorded for 300 s at 340 nm.
Kinetic analysis for GSH was performed using standard CDNB concentration (1 mM) and varying GSH concentrations. Correspondingly, standard concentration of GSH substrate (2.5 mM) and varying concentrations of CDNB were utilised in the kinetic analysis for CDNB.
The kinetic parameters of the immobilized FGGsh155:CB[8] were calculated using the CDNB/GSH substrate system in 20 mM KH2PO4, PH 7.0, at 37° C. (FIG. 20) depicts the dependence of the enzyme's reaction rate on the substrate concentration. […] Respectively the kinetic analysis for GSH was carried with standard CDNB concentration (1 mM) and different GSH concentrations. […] The reduction in kcat is usually expected after immobilization (Neira & Herr, 2017).

[6] = Steady-state kinetic analysis of FGG-GSTFs, CDNB/GSH substrate system; type: biochemical; conditions: for catalytic constant: enzyme samples with CB[8] in 1:1 stoichiometry; for kcat: free enzyme
Experimental: as §1
The kinetic parameters of FGGsh101 and FGGsh155 were analyzed both in absence of CB[8] and five days after the addition of the macrocyclic host in 1:1 ratio. This was determined according to the fluorescence intensity monitoring experiments, where the reduction of fluorescence emission appeared to reach a plateau after 4-5 days. (see Example 3)

[7] = Thermal stability (Tm) by differential scanning fluorimetry; type: physicochemical; conditions: after addition of CB[8]; for increase in Tm1: versus Tm0, especially 1:1 stoichiometry
Experimental: The thermostability of FGG-GSTFs, FGGsh101 and FGGsh155 was assessed by differential scanning fluorimetry (DSF) in the presence of the macrocyclic compound CB[8]. CB[8] was added in stoichiometry of 1:1 and 2:1 enzyme to host concentration. The reaction was performed in 50 mM KH2PO4 solution, pH 7.14, using either 15 μM enzyme and 15 μM CB[8] (1:1) or 15 μM enzyme and 7.5 μM CB[8] (2:1). A “control” reaction for each ratio was also measured, where only CB[8]'s solvent of was added to the enzyme. Differential scanning fluorimetry was performed in 20 mM KH2PO4 buffer, pH 7, with 4 μg of protein sample, according to published methods (Huynh & Partch, 2015). Thermal shift assays we carried using a Real-time PCR StepOne™ instrument (Applied Biosystems, USA) and the SYPRO Orange protein dye at a temperature range between 15° C. and 99° C. with a ramping rate of 1%. Temperature of protein denaturation midpoint (Tm) was estimated by the first derivative of the normalized fluorescence data.

[8] = Enzyme stability upon storage at 4° C. (retention of activity); type: physicochemical; conditions: first twenty days
Experimental: Enzymatic stability was determined as the retention of enzyme activity overtime upon storage at 4° C. for the FGGsh155:CB[8] before and after immobilization, as well as the unmodified form of FGGsh155. Monitoring of the enzyme inactivation was determined using the CDNB/GSH substrate system.

[9] = CDNB/GSH substrate system, pH 6.5, 37° C., one active site per subunit

Molecule: O=[N+]([O-])c1ccc(Cl)c([N+](=O)[O-])c1 [CDNB, 1-chloro-2,4-dinitrobenzene]
- nH (Hill coefficient) ([1]; CDNB variable, pH 6.5, 37° C.): 1.17 ± 0.03
- kcat [1, 9]: 2.657 ± 0.0202 s⁻¹
- kcat/S0.5 CDNB ([1]; pH 6.5, 37° C.): 6625.2 M⁻¹ s⁻¹
- nH (Hill coefficient) ([2]; CDNB variable, five days after CB[8] addition 1:1, pH 6.5, 37° C.): 1.1 ± 0.06
- kcat ([2]; CDNB/GSH substrate system, five days after CB[8] addition 1:1, pH 6.5, 37° C.): 2.248 ± 0.0547 s⁻¹
- kcat/S0.5 CDNB ([2]; five days after CB[8] addition 1:1, pH 6.5, 37° C.): 4014.8 M⁻¹ s⁻¹
- nH (Hill coefficient) ([3]; free enzyme, CDNB variable, five days after CB[8] addition 1:1, pH 6.5, 37° C.): 1.01 ± 0.02
- kcat ([3]; free enzyme, CDNB/GSH substrate system, five days after CB[8] addition 1:1, pH 6.5, 37° C.): 2.02 ± 0.019 s⁻¹
- S0.5 CDNB ([3]; free enzyme, GSH at fixed concentration, five days after CB[8] addition 1:1, pH 6.5, 37° C.): 0.81 ± 0.05 mM
- kcat/S0.5 CDNB ([3]; free enzyme, five days after CB[8] addition 1:1, pH 6.5, 37° C.): 2489.7 M⁻¹ s⁻¹
- nH (Hill coefficient) ([4]; CDNB variable, pH 6.5, 37° C.): 1.01 ± 0.03
- kcat [4, 9]: 2.807 ± 0.0453 s⁻¹
- kcat/S0.5 CDNB ([4]; pH 6.5, 37° C.): 3645 M⁻¹ s⁻¹
- kcat/S0.5 CDNB ([5]; 20 mM KH2PO4, pH 7.0, 37° C.): 19 M⁻¹ s⁻¹
- nH (Hill coefficient) ([5]; CDNB variable, GSH 2.5 mM, pH 7.0, 37° C.): 1.47 ± 0.12
- kcat ([5]; CDNB/GSH substrate system, 20 mM KH2PO4, pH 7.0, 37° C.): 0.0213 ± 0.002 s⁻¹

Molecule: N[C@@H](CCC(=O)N[C@@H](CS)C(=O)NCC(=O)O)C(=O)O [GSH, glutathione]
- kcat/Km GSH ([1]; pH 6.5): 1978 M⁻¹ s⁻¹
- Km ([1]; pH 6.5, read-out: Km GSH): 1360 ± 20 µM
- kcat/Km GSH ([2]; pH 6.5): 1594 M⁻¹ s⁻¹
- Km ([2]; pH 6.5, read-out: Km GSH): 1410 ± 50 µM
- kcat/Km GSH ([3]; pH 6.5): 1410 M⁻¹ s⁻¹
- Km ([3]; pH 6.5, read-out: Km GSH): 1430 ± 30 µM
- kcat/Km GSH ([4]; pH 6.5): 1896.3 M⁻¹ s⁻¹
- Km ([4]; pH 6.5, read-out: Km GSH): 1480 ± 30 µM
- kcat/Km GSH ([5]; 20 mM KH2PO4, pH 7.0, 37° C.): 16.8 M⁻¹ s⁻¹
- Km ([5]; CDNB 1 mM, 20 mM KH2PO4, pH 7.0, 37° C., read-out: Km GSH): 1260 ± 80 µM

B1: FGGsh155: phi class GST mutant sh155 (SEQ ID NO: 2) with N-terminal phenylalanine-glycine-glycine tag; dimer (protein)
chain: MFGGAPVKVFGPAMSTNVARVTLCLEEVGAEYEVVDIDFKAMEHKSPEHLVRNPFGQIPAFQDGDLLLFESRAIAKYVLRKYKTDEVDLLREGNLKEAAMVDVWTEYDAHTYNPALSPIVYECLINPLMRGLPTNQTVVDESLEKLKKVLEVYEARLSQHKYLAGDFVSFADLNHFPYTFYFMATPHAALFDSYPHVKAWWDRLMARPAVKKIAATMVPPKA
modifications: N-terminal FGG tag; dimer
- catalytic constant [6]: 121 ± 1.14 min⁻¹
- kcat [6]: 2.807 ± 0.0453 s⁻¹
- second distinct melting point Tm2 [7]: ≈ 85 °C
- increase in Tm1 [7]: up to 3.5 °C
- retained activity [8]: approximately 50%

B2: FGGsh101: phi class GST mutant sh101 (SEQ ID NO: 1) with N-terminal phenylalanine-glycine-glycine tag; dimer (protein)
chain: B1 chain with D36N, K40N, A41T, V51A, F69W, A75S
modifications: N-terminal FGG tag; dimer
- catalytic constant [6]: 134.9 ± 3.28 min⁻¹
- kcat [6]: 2.657 ± 0.0202 s⁻¹
- second distinct melting point Tm2 [7]: ≈ 85 °C
- increase in Tm1 [7]: 1.5-2 °C
